Where two headings read alike, the source gives them in different places.
Test system: Swiss Albino or CD-1 male mice
Assay: Acetic acid writhing (AAW) analgesic assay
Format: in vivo, mouse
Details: for inhibition in vivo at 30 mg/kg: Mus musculus, 20 min, read-out: AAW % Efficacy
Description: Approaches for evaluating analgesic activity of a compound of the present invention in vivo include a “writhing test.” Briefly, the compound to be tested is administered [by, for example, injection (e.g., subcutaneous injection)] to the mouse. Thereafter, a 0.5% acetic acid solution is administered (i.p.) to a mouse and the numbers of writhing responses are counted for twenty minutes. Antinociception is quantified as reduction in the number of writhes respective to vehicle.
An analgesic assay was used to determine whether a given compound can reduce and/or prevent visceral pain in mice. The assay utilizes Swiss Albino or CD-1 male mice (5-10 mice per group), each mouse being approximately 0.015-0.030 kg on the study day. Mice were treated according to standard protocols.
The animal was given an intraperitoneal (IP) injection of an irritant (acetic acid) that induces “writhing” which may include: contractions of the abdomen, twisting and turning of the trunk, arching of the back and the extension of the hindlimbs. Mice are given a single IP injection (0.1 mL/10 g bodyweight) of a 0.5% acetic acid solution. After the injection the animals were returned to their observation enclosure and their behavior was observed. Contractions were counted between 0 and 20 minutes after the injection. The animals were used once. In certain instances, the test articles were administered at multiple doses to determine a dose response curve.
Table 4 provides the results for certain compounds of the present invention that were administered subcutaneously. Table 5 provides the results for certain compounds of the present invention that were administered orally.

COCCOCCOCCOCCOCCOc1cccc(Nc2ccc3c(c2)[C@]2(C)CCN(CC4CC4)[C@H](C3=O)[C@@H]2C)c1 [Compound 8, (2S,6R,11R)-8-((3-(2,5,8,11,14-pentaoxahexadecan-16-yloxy)phenyl)amino)-3-(cyclopropylmethyl)-6,11-dimethyl-3,4,5,6-tetrahydro-2,6-methanobenzo[d]azocin-1(2H)-one]
AAW % Efficacy (subcutaneous, 30 mg/kg): 100.0%

COCCOCCOCCOCCOCCNc1cccc(Nc2ccc3c(c2)[C@]2(C)CCN(CC4CC4)[C@H](C3=O)[C@@H]2C)c1 [Compound 11, (2S,6R,11R)-8-((3-(2,5,8,11,14-pentaoxahexadecan-16-ylamino)phenyl)amino)-3-(cyclopropylmethyl)-6,11-dimethyl-3,4,5,6-tetrahydro-2,6-methanobenzo[d]azocin-1(2H)-one]
inhibition in vivo at 30 mg/kg (sc, subcutaneous): 100%

C[C@H]1[C@H]2C(=O)c3ccc(Nc4ccc(NCCOCCOCCOCCOCCOC(F)(F)F)cc4)cc3[C@]1(C)CCN2CC1CC1 [Compound 20, (2S,6R,11R)-3-(cyclopropylmethyl)-6,11-dimethyl-8-((4-((1,1,1-trifluoro-2,5,8,11,14-pentaoxahexadecan-16-yl)amino)phenyl)amino)-3,4,5,6-tetrahydro-2,6-methanobenzo[d]azocin-1(2H)-one]
inhibition in vivo at 30 mg/kg (oral): 100%

Source: patent US10865186B2, “Opioid agonists and uses thereof” (Nektar Therapeutics, priority 2013, dated 2020)
